What was measured:
AMPK [1] = assay: AMPK activation assay (western blot phospho-AMPK Thr172) in C2C12; type: cell-based, mouse; conditions: C2C12 cells, 30 min treatment
Summary of the method: (§1)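 Mouse C2C12, mouse 3T3-L1 and human Hep G2 cells in high-glucose DMEM/10% FBS were treated with compounds for 30 min, 24 h after plating. Lysates were western-blotted for phospho-AMPK (Thr172) and total AMPK, ECL-detected, and bands quantified by densitometry.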

AMPK [2] = assay: AMPK activation assay (western blot phospho-AMPK Thr172) in 3T3-L1; type: cell-based, mouse; conditions: 3T3-L1 cells, 30 min treatment
Summary of the method: as §1

muscle cell C2C12 = assay: Glucose uptake in vitro (fluorescent glucose analog 2-NBDG); type: cell-based, mouse; conditions: 30 min treatment, mean±SEM of three experiments
Protocol: Effects of representative compounds on glucose uptake were analyzed in muscle cell C2C12 by using fluorescent glucose analog (2-NBDG, Molecular Probes). C2C12 were treated with selected novel AMPK activator for 30 min at 37° C. then exposed to 500 μM of fluorescent glucose analog. After 5 min incubation at room temperature, cells were washed three times with Kreb-Hepes buffered solution and fix in 70% alcohol. The fluorescence of glucose analog in cells was detected using a Fluorescence Microplate Reader System at 480-nm excitation and 530-nm emission wavelength.
Data are presented as the mean±SEM of three independent experiments.

AMPK [3] = assay: AMPK activation assay (western blot phospho-AMPK Thr172) in Hep G2; type: cell-based, human; conditions: Hep G2 cells, 30 min treatment
Summary of the method: as §1

Row | Structure (SMILES) | AMPK activation (% to control) C2C12 (AMPK [1]; 1 microM) | AMPK activation (% to control) C2C12 (AMPK [1]; 10 microM) | AMPK activation (% to control) C2C12 (AMPK [1]; 100 microM) | AMPK activation (% to control) C2C12 (AMPK [1]; 200 microM) | AMPK activation (% to control) 3T3-L1 (AMPK [2]; 1 microM) | AMPK activation (% to control) 3T3-L1 (AMPK [2]; 10 microM) | AMPK activation (% to control) 3T3-L1 (AMPK [2]; 100 microM) | AMPK activation (% to control) 3T3-L1 (AMPK [2]; 200 microM) | Glucose uptake (% to control) (muscle cell C2C12; C2C12, 1 microM) | Glucose uptake (% to control) (muscle cell C2C12; C2C12, 10 microM) | Glucose uptake (% to control) (muscle cell C2C12; C2C12, 100 microM) | Glucose uptake (% to control) (muscle cell C2C12; C2C12, 600 microM) | AMPK activation (% to control) Hep G2 (AMPK [3]; 1 microM) | AMPK activation (% to control) Hep G2 (AMPK [3]; 10 microM) | AMPK activation (% to control) Hep G2 (AMPK [3]; 100 microM) | AMPK activation (% to control) Hep G2 (AMPK [3]; 200 microM)
1 | Oc1nc(NC2CCCCC2)nc2nc[nH]c12 [2-cyclohexylamino-6-hydroxypurine] | 108 % to control | 118 % to control | 209 % to control | 321 % to control | 118 % to control | 172 % to control | 283 % to control | 375 % to control | 108 ± 2.1 % to control | 195 ± 11.9 % to control | 251 ± 16.2 % to control | 311 ± 10.7 % to control | 111 % to control | 137 % to control | 248 % to control | 351 % to control
2 | Cc1ccc(CNc2ncnc3nc[nH]c23)cc1 [6-(4-methylbenzylamino)purine] | 112 % to control | 158 % to control | 270 % to control | 358 % to control | 110 % to control | 163 % to control | 259 % to control | 347 % to control | 114 ± 9.2 % to control | 205 ± 14.6 % to control | 281 ± 11.5 % to control | 309 ± 9.1 % to control | 106 % to control | 121 % to control | 245 % to control | 348 % to control
3 | O=c1cn[nH]c(=O)[nH]1 [Example 6-azauracil, 6-azauracil] | 109 % to control | 109 % to control | 197 % to control | 284 % to control | 109 % to control | 115 % to control | 185 % to control | 288 % to control | – | – | – | – | 108 % to control | 124 % to control | 199 % to control | 273 % to control
4 | c1nc(NC2CCCCC2)c2[nH]cnc2n1 [Example 6-cyclohexylaminopurine, 6-cyclohexylaminopurine] | 107 % to control | 110 % to control | 248 % to control | 322 % to control | 107 % to control | 152 % to control | 269 % to control | 333 % to control | – | – | – | – | 111 % to control | 132 % to control | 261 % to control | 354 % to control
5 | CCCCCCNc1ncnc2nc[nH]c12 [Example 6-hexylaminopurine, 6-hexylaminopurine] | 109 % to control | 123 % to control | 248 % to control | 359 % to control | 108 % to control | 111 % to control | 170 % to control | 265 % to control | – | – | – | – | 112 % to control | 148 % to control | 280 % to control | 317 % to control
6 | Sc1ncnc2nc[nH]c12 [Example 6-mercaptopurine, 6-mercaptopurine] | 105 % to control | 119 % to control | 198 % to control | 289 % to control | 114 % to control | 128 % to control | 176 % to control | 218 % to control | – | – | – | – | 114 % to control | 122 % to control | 204 % to control | 279 % to control
7 | CNc1ncnc2nc[nH]c12 [Example 6-methylaminopurine, 6-methylaminopurine] | 103 % to control | 108 % to control | 213 % to control | 328 % to control | 107 % to control | 129 % to control | 241 % to control | 347 % to control | – | – | – | – | 116 % to control | 141 % to control | 259 % to control | 363 % to control
8 | Nc1nc2[nH]cnc2c(=S)[nH]1 [Example 6-thioquanine] | 116 % to control | 141 % to control | 215 % to control | 301 % to control | 115 % to control | 132 % to control | 241 % to control | 289 % to control | – | – | – | – | 116 % to control | 133 % to control | 229 % to control | 311 % to control
9 | O=c1[nH]c(=O)n([C@H]2C[C@H](O)[C@@H](CO)O2)cc1F [Floxuridine] | 117 % to control | 144 % to control | 231 % to control | 312 % to control | 116 % to control | 141 % to control | 222 % to control | 343 % to control | – | – | – | – | 117 % to control | 147 % to control | 206 % to control | 308 % to control
10 | Nc1nc2nc[nH]c2c(=O)[nH]1 [Guanine] | 105 % to control | 117 % to control | 241 % to control | 304 % to control | 107 % to control | 121 % to control | 208 % to control | 312 % to control | – | – | – | – | 119 % to control | 144 % to control | 199 % to control | 335 % to control
11 | O=c1[nH]cnc2nc[nH]c12 [Hypoxanthine] | 108 % to control | 121 % to control | 238 % to control | 309 % to control | 108 % to control | 128 % to control | 231 % to control | 335 % to control | – | – | – | – | 105 % to control | 124 % to control | 225 % to control | 341 % to control
12 | O=c1cc[nH]c(=O)[nH]1 [Uracil] | 105 % to control | 109 % to control | 264 % to control | 358 % to control | 114 % to control | 123 % to control | 248 % to control | 372 % to control | – | – | – | – | 118 % to control | 144 % to control | 237 % to control | 359 % to control

Source: patent US9938279B2, “Method for treating disease or condition susceptible to amelioration by AMPK activators and compounds of formula which are useful to activate AMP-activated protein kinase (AMPK)” (ENERGENESIS BIOMEDICAL CO., LTD, priority 2013, dated 2018)
